Assays:
[1] = In-vitro release Test 2 (water); type: physicochemical; conditions: micronized, particle size between 5 μm and 25 μm (to 95%)
From the text: (§1) In the Federal Register Vol. 62, No. 15, Aug. 14, 1997; page 43535, the Department of Health and Human. Services, Food and Drug Administration, published the facts that the products available on the U.S. market which comprise levothyroxine sodium and are orally administered have stability problems and therefore must be present in an up to […] excess dose and that manufacturers must develop appropriate novel administration forms. The requirements on in-vitro release for levothyroxine Na tablets have furthermore been increased. The monograph draft version of the Pharmacopeial Forum (Pharm. Preview, 1995, 21, 1459-1461) proposes, in addition to the valid Test 1 (phosphate buffer pH 7.4, in 80 minutes >55%) to approve Test 2 (water in 45 minutes >70%).
(§2) With a particle size between 5 μm and 25 μm (to 95%) , however, a release of the active compound takes place in Test 1 to >90% (phosphate buffer) and in Test 2 to >80% (water).

[2] = non-micronized (customarily), cited from earlier work
[3] = In-vitro release Test 1 (phosphate buffer pH 7.4); type: physicochemical; conditions: micronized, particle size between 5 μm and 25 μm (to 95%)
From the text: as §1, §2

release of the active compound in Test 2 [1]: > 80% | release of the active compound in Test 1 [3]: > 90%
SMILES: N[C@@H](Cc1cc(I)c(Oc2cc(I)c(O)c(I)c2)c(I)c1)C(=O)O [Levothyroxine sodium, levothyroxine sodium]
solubility in ethanol ([2]; ethanol): very sparingly soluble | solubility in water ([2]; water): very sparingly soluble

Reference: US20040063611A1, “Pharmaceutical preparation” (Merck Patent GmbH, priority 1998, published 2004)
